What was measured:
Assay in all cases: biochemical
Design in all cases: species or system HEK293/K-562/placenta mixed human extract; Kinobeads chemoproteomic competition binding, quantified by TMT LC-MS/MS, dose response up to 20 uM
RIPK1 = RIPK1 (Homo sapiens, UniProt Q13546)
RPS6KB1 = RPS6KB1 (Homo sapiens, UniProt P23443)
STK3 = STK3 (Homo sapiens, UniProt Q13188)
BMX = BMX (Homo sapiens, UniProt P51813)
mTOR = mTOR (Homo sapiens, UniProt P42345)
MASTL = MASTL (Homo sapiens, UniProt Q96GX5)
PRKAG1 = PRKAG1 (Homo sapiens, UniProt P54619)
Sequence of PRKAG1 (P54619 whole entry): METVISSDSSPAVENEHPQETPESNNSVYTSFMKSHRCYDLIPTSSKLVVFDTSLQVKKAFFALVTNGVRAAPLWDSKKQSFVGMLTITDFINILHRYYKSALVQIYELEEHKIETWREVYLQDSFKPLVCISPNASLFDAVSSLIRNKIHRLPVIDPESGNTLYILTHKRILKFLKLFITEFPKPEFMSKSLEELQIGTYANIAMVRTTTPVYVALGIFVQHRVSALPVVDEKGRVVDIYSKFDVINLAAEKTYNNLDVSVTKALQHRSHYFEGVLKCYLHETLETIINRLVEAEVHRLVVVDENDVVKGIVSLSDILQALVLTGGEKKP

DYRK1A = DYRK1A (Homo sapiens, UniProt Q13627)
MARK4 = MARK4 (Homo sapiens, UniProt Q96L34)
STK39 = STK39 (Homo sapiens, UniProt Q9UEW8)
ULK3 = ULK3 (Homo sapiens, UniProt Q6PHR2)
STK16 = STK16 (Homo sapiens, UniProt O75716)
PIK3C2B = PIK3C2B (Homo sapiens, UniProt O00750)
Sequence of PIK3C2B (O00750 whole entry): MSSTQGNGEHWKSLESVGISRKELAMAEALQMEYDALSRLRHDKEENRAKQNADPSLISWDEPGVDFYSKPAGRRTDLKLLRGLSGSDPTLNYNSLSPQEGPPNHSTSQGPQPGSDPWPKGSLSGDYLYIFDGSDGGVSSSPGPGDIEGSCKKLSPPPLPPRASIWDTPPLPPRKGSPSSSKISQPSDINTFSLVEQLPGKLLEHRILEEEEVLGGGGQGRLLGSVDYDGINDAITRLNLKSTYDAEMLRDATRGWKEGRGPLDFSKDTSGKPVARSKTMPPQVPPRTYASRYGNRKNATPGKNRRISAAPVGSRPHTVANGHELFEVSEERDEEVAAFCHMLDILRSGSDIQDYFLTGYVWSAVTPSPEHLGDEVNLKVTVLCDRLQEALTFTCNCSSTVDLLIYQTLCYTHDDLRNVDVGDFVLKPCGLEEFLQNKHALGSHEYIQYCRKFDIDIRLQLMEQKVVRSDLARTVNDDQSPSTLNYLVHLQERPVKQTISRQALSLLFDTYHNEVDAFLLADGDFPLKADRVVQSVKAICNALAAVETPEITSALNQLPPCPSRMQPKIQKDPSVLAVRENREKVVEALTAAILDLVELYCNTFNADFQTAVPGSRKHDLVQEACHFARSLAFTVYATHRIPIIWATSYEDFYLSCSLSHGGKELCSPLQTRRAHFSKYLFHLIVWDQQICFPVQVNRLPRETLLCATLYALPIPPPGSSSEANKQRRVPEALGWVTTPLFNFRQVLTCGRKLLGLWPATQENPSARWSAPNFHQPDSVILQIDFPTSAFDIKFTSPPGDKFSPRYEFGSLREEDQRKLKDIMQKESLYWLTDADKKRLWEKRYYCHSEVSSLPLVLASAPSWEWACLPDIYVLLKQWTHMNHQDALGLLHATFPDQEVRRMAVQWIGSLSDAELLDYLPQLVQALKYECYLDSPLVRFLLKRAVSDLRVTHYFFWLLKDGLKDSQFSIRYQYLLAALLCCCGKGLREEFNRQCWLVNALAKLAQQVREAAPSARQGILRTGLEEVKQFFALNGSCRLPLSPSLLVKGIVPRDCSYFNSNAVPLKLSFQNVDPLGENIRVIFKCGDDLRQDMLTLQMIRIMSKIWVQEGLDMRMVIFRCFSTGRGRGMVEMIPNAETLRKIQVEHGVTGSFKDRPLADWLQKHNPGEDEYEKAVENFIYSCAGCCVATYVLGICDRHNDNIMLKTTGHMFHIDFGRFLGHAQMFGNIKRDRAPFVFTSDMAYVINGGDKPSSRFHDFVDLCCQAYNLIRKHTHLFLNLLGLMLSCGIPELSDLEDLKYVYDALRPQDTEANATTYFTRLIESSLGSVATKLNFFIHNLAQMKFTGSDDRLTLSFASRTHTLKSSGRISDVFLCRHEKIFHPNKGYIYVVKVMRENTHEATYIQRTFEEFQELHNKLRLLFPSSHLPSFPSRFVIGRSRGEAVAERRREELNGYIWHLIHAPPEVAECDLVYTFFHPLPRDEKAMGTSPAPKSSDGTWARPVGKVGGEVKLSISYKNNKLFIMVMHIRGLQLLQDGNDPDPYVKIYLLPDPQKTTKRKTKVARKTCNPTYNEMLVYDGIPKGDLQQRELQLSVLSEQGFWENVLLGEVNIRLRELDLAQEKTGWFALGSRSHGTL

PRKD1 = PRKD1 (Homo sapiens, UniProt Q15139)
Sequence of PRKD1 (Q15139 whole entry): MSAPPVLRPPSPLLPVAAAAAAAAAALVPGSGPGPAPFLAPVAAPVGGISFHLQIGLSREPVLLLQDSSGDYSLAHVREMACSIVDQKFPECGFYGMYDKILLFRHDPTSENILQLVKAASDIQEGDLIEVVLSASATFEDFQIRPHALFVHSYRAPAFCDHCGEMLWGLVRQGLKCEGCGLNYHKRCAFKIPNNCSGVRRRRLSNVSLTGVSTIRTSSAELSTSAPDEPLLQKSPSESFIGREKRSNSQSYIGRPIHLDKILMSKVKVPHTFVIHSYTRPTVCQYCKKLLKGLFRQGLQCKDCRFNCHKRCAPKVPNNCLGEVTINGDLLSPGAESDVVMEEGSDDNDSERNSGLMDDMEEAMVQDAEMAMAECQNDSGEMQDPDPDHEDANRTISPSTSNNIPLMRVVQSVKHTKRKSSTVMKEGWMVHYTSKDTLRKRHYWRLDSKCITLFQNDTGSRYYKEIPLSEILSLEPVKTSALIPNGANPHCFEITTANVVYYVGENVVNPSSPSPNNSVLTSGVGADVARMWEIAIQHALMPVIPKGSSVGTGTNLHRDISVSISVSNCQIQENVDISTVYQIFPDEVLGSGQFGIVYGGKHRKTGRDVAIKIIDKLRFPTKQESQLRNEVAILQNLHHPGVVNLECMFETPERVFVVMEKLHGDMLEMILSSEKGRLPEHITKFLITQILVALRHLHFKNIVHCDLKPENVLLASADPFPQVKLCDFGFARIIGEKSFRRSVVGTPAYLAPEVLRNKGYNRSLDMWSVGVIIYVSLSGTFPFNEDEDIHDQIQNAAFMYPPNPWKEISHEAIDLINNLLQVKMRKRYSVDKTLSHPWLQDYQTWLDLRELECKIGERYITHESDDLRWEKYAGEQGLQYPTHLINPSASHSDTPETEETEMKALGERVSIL

SGK3 = SGK3 (Homo sapiens, UniProt Q96BR1)
LRRK2 = LRRK2 (Homo sapiens, UniProt Q5S007)
EPHB3 = EPHB3 (Homo sapiens, UniProt P54753)
Sequence of EPHB3 (P54753 whole entry): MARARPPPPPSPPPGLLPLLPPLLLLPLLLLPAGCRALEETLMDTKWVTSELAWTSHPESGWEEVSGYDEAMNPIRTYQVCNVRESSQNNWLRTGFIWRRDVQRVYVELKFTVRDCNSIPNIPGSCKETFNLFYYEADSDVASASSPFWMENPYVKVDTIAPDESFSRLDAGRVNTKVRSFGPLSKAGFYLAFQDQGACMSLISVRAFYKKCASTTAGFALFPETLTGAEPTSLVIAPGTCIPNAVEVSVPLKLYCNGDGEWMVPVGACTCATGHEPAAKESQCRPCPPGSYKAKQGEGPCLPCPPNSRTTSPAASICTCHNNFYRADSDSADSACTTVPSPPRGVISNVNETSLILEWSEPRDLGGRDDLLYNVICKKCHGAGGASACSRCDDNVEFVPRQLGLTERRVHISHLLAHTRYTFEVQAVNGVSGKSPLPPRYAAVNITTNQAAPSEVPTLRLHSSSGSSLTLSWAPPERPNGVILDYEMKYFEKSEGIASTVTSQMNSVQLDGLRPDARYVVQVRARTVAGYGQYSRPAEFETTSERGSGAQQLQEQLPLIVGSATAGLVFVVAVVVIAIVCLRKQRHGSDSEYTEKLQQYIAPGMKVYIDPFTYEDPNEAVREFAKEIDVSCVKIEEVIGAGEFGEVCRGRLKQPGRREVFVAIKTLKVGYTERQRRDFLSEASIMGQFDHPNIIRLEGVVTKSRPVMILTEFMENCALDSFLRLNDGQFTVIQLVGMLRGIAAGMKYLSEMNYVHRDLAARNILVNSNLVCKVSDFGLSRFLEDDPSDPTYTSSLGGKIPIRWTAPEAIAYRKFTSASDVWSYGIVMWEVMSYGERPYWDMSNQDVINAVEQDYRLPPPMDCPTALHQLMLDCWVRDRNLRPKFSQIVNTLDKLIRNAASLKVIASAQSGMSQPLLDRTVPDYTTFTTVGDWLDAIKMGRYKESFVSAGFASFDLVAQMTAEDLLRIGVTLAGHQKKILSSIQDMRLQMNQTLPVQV

CSNK1E = CSNK1E (Homo sapiens, UniProt P49674)
CSK = CSK (Homo sapiens, UniProt P41240)
PRKG1 = PRKG1 (Homo sapiens, UniProt Q13976)
LIMK2 = LIMK2 (Homo sapiens, UniProt P53671)

Sequence of STK3 (Q13188 whole entry): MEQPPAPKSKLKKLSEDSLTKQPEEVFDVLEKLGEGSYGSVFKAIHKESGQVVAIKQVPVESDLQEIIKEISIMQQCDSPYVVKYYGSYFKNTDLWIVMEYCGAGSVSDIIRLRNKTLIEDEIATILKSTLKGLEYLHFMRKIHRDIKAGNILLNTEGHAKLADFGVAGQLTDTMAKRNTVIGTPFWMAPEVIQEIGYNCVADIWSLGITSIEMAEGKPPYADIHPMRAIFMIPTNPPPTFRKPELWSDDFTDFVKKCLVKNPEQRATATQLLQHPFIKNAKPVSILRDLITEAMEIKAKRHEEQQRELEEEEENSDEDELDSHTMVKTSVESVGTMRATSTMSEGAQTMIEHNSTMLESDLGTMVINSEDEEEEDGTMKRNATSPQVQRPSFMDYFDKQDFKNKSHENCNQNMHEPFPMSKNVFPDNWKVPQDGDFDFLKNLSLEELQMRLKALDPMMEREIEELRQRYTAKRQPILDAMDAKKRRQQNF
Sequence of RIPK1 (Q13546 whole entry): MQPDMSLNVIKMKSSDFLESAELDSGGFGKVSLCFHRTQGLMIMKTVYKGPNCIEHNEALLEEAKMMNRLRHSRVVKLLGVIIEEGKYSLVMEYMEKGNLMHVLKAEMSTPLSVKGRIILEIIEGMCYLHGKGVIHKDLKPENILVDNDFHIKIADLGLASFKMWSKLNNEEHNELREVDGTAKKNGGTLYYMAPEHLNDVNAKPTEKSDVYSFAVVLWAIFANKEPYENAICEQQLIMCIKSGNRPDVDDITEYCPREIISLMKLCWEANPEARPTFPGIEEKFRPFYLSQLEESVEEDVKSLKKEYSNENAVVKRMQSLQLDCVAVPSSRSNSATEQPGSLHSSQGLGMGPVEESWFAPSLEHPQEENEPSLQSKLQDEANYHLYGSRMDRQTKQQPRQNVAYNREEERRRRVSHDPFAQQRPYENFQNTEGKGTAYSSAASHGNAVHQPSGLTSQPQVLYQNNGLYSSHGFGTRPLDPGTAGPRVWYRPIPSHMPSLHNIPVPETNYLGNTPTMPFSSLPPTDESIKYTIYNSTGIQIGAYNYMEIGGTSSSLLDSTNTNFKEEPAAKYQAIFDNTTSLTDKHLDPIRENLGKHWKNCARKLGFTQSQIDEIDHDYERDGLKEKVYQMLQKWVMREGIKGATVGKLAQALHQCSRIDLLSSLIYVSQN

In the case of `COc1ccccc1-c1n[nH]c2nc(N[C@H]3CC[C@H](NS(=O)(=O)CCC(F)(F)F)CC3)nc(OC)c12` [compound 31, 3,3,3-Trifluoro-N-(trans-4-((4-methoxy-3-(2-methoxyphenyl)-1H-pyrazolo[3,4-d]pyrimidin-6-yl)amino)cyclohexyl)propane-1-sulfonamide], the IC50 (RIPK1) is reported as at least 20 µM, the IC50 (RPS6KB1) is reported as at least 20 µM and the IC50 (STK3) is reported as at least 20 µM. It also gave an IC50 (BMX) of at least 20 µM, an IC50 (mTOR) of at least 20 µM and an IC50 (MASTL) of at least 20 µM. It also gave an IC50 (PRKAG1) of at least 20 µM, an IC50 (DYRK1A) of at least 20 µM and an IC50 (MARK4) of at least 20 µM. It also gave an IC50 (STK39) of at least 20 µM, an IC50 (ULK3) of at least 20 µM and an IC50 (STK16) of at least 20 µM. It also gave an IC50 (PIK3C2B) of at least 20 µM, an IC50 (PRKD1) of at least 20 µM and an IC50 (SGK3) of at least 20 µM. For the same molecule, the IC50 (LRRK2) was at least 20 µM, the IC50 (EPHB3) was at least 20 µM and the IC50 (CSNK1E) was 7.7 µM. For the same molecule, the IC50 (CSK) was at least 20 µM, the IC50 (PRKG1) was at least 20 µM and the IC50 (LIMK2) was at least 20 µM.

Reference: publication PMC6407917, “Identification of GSK3186899/DDD853651 as a Preclinical Development Candidate for the Treatment of Visceral Leishmaniasis” (Journal of Medicinal Chemistry, 2018)
